# Values quoted from earlier work as cited in US20030109488A1, “Methods for treating dry eye” (Alcon, Inc., priority 2001, published 2003).
# Tested on: human conjunctival epithelial cells
# Details: background statement, no data given
smiles,measurement,value
CCCCC[C@H](O)/C=C/C=C\C/C=C\C/C=C\CCCC(=O)O [15-HETE],secretion of mucin-1 (MUC-1),increase the secretion of mucin-1 (MUC-1)
